Assay results taken from PubChem BioAssay AID1963831 (Molecular Pharmacology Branch, DTP, NCI, 2024).

Tested on: 889142-216-R-J1-PDC complex spheroid viability
Experiment: Anticancer human tumor 889142-216-R-J1-PDC patient-derived bladder carcinoma cell line growth inhibition [POLQ]
Settings: for IC50: curve of first compound; for viability, T/C: stronger effect = lower value
Method in brief: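 PDC + HUVEC + MSC complex spheroids; POLQ inhibitors ± partner drugs; top conc. at/near clinical Cmax, else 10 microM (SN-38 1 microM), half-log dilutions; 37 degrees C, 5% CO2.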

[1] = second compound 0.0316 µM, first compound 0.0316 µM
[2] = second compound 0.0316 µM, first compound 0.1 µM
[3] = second compound 0.0316 µM, first compound 0.316 µM
[4] = second compound 0.0316 µM, first compound 1 µM
[5] = second compound 0.0316 µM, first compound 3.16 µM
[6] = second compound 0.0316 µM, first compound 10 µM
[7] = second compound 0.1 µM, first compound 0.0316 µM
[8] = second compound 0.1 µM, first compound 0.1 µM
[9] = second compound 0.1 µM, first compound 0.316 µM
[10] = second compound 0.1 µM, first compound 1 µM
[11] = second compound 0.1 µM, first compound 3.16 µM
[12] = second compound 0.1 µM, first compound 10 µM
[13] = second compound 0.316 µM, first compound 0.0316 µM
[14] = second compound 0.316 µM, first compound 0.1 µM
[15] = second compound 0.316 µM, first compound 0.316 µM
[16] = second compound 0.316 µM, first compound 1 µM
[17] = second compound 0.316 µM, first compound 3.16 µM
[18] = second compound 0.316 µM, first compound 10 µM
[19] = second compound 1 µM, first compound 0.0316 µM
[20] = second compound 1 µM, first compound 0.1 µM
[21] = second compound 1 µM, first compound 0.316 µM
[22] = second compound 1 µM, first compound 1 µM
[23] = second compound 1 µM, first compound 3.16 µM
[24] = second compound 1 µM, first compound 10 µM
[25] = second compound 3.16 µM, first compound 0.0316 µM
[26] = second compound 3.16 µM, first compound 0.1 µM
[27] = second compound 3.16 µM, first compound 0.316 µM
[28] = second compound 3.16 µM, first compound 1 µM
[29] = second compound 3.16 µM, first compound 3.16 µM
[30] = second compound 3.16 µM, first compound 10 µM
[31] = second compound 10 µM, first compound 0.0316 µM
[32] = second compound 10 µM, first compound 0.1 µM
[33] = second compound 10 µM, first compound 0.316 µM
[34] = second compound 10 µM, first compound 1 µM
[35] = second compound 10 µM, first compound 3.16 µM
[36] = second compound 10 µM, first compound 10 µM
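Further: spheroids exposed to compounds for seven days.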
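Wherever viability, T/C is given: 100% = DMSO vehicle control viability.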

COc1cc(C2c3cc4c(cc3C(OC3OC5COC(C)OC5C(O)C3O)C3COC(=O)C23)OCO4)cc(OC)c1O (stereo unspecified) + COC1C(OC(N)=O)C(O)C(Oc2ccc3c(O)c(NC(=O)c4ccc(O)c(CC=C(C)C)c4)c(=O)oc3c2C)OC1(C)C
IC50 (second compound 0.0316 µM): > 10 µM | IC50 (second compound 0.1 µM): > 10 µM | IC50 (second compound 0.316 µM): > 10 µM | IC50 (second compound 1 µM): 10 µM | IC50 (second compound 3.16 µM): > 10 µM | IC50 (second compound 10 µM): > 10 µM | viability, T/C [1]: 93.7% | viability, T/C [2]: 81.6% | viability, T/C [3]: 52% | viability, T/C [4]: 57.3% | viability, T/C [5]: 74% | viability, T/C [6]: 52.9% | viability, T/C [7]: 87.1% | viability, T/C [8]: 87.2% | viability, T/C [9]: 63% | viability, T/C [10]: 56.3% | viability, T/C [11]: 70.4% | viability, T/C [12]: 50.4% | viability, T/C [13]: 110% | viability, T/C [14]: 88.8% | viability, T/C [15]: 66.1% | viability, T/C [16]: 56.2% | viability, T/C [17]: 60.3% | viability, T/C [18]: 52.9% | viability, T/C [19]: 91.5% | viability, T/C [20]: 99.9% | viability, T/C [21]: 53.4% | viability, T/C [22]: 61% | viability, T/C [23]: 60.4% | viability, T/C [24]: 56% | viability, T/C [25]: 94.9% | viability, T/C [26]: 96.9% | viability, T/C [27]: 75.3% | viability, T/C [28]: 51% | viability, T/C [29]: 58.1% | viability, T/C [30]: 52.9% | viability, T/C [31]: 108% | viability, T/C [32]: 90.2% | viability, T/C [33]: 56.7% | viability, T/C [34]: 48.9% | viability, T/C [35]: 64.5% | viability, T/C [36]: 55.3%

O=C(c1cc(Cc2n[nH]c(=O)c3ccccc23)ccc1F)N1CCN(C(=O)C2CC2)CC1 + Cc1cccc(N(C)C(=O)C2C(O)CCN2c2nc(C)cc(C(F)(F)F)c2C#N)c1
IC50 (second compound 0.0316 µM): > 10 µM | IC50 (second compound 0.1 µM): > 10 µM | IC50 (second compound 0.316 µM): > 10 µM | IC50 (second compound 1 µM): > 10 µM | IC50 (second compound 3.16 µM): > 10 µM | IC50 (second compound 10 µM): > 10 µM | viability, T/C [1]: 103% | viability, T/C [2]: 99.7% | viability, T/C [3]: 108% | viability, T/C [4]: 83.3% | viability, T/C [5]: 70.1% | viability, T/C [6]: 65% | viability, T/C [7]: 106% | viability, T/C [8]: 116% | viability, T/C [9]: 95% | viability, T/C [10]: 98.2% | viability, T/C [11]: 87.9% | viability, T/C [12]: 63.6% | viability, T/C [13]: 92.2% | viability, T/C [14]: 98.8% | viability, T/C [15]: 97.5% | viability, T/C [16]: 80.8% | viability, T/C [17]: 72% | viability, T/C [18]: 64.3% | viability, T/C [19]: 105% | viability, T/C [20]: 98.5% | viability, T/C [21]: 84.7% | viability, T/C [22]: 77.3% | viability, T/C [23]: 88.5% | viability, T/C [24]: 68.5% | viability, T/C [25]: 91.3% | viability, T/C [26]: 91.7% | viability, T/C [27]: 88.8% | viability, T/C [28]: 81.5% | viability, T/C [29]: 73.7% | viability, T/C [30]: 52.9% | viability, T/C [31]: 81.8% | viability, T/C [32]: 81.3% | viability, T/C [33]: 68.7% | viability, T/C [34]: 85.8% | viability, T/C [35]: 70.1% | viability, T/C [36]: 52.4%

O=C(Nc1ccc(O)c(NS(=O)(=O)c2ccc(F)cc2)c1)c1ccc(-c2ccccc2)cc1 + COC1C(OC(N)=O)C(O)C(Oc2ccc3c(O)c(NC(=O)c4ccc(O)c(CC=C(C)C)c4)c(=O)oc3c2C)OC1(C)C
IC50 (second compound 0.0316 µM): > 10 µM | IC50 (second compound 0.1 µM): > 10 µM | IC50 (second compound 0.316 µM): > 10 µM | IC50 (second compound 1 µM): > 10 µM | IC50 (second compound 3.16 µM): > 10 µM | IC50 (second compound 10 µM): > 10 µM | viability, T/C [1]: 122% | viability, T/C [2]: 98.7% | viability, T/C [3]: 115% | viability, T/C [4]: 116% | viability, T/C [5]: 116% | viability, T/C [6]: 67.2% | viability, T/C [7]: 93.9% | viability, T/C [8]: 90.7% | viability, T/C [9]: 92.6% | viability, T/C [10]: 108% | viability, T/C [11]: 111% | viability, T/C [12]: 64.7% | viability, T/C [13]: 128% | viability, T/C [14]: 110% | viability, T/C [15]: 99.9% | viability, T/C [16]: 125% | viability, T/C [17]: 139% | viability, T/C [18]: 73.8% | viability, T/C [19]: 103% | viability, T/C [20]: 115% | viability, T/C [21]: 114% | viability, T/C [22]: 107% | viability, T/C [23]: 105% | viability, T/C [24]: 75.9% | viability, T/C [25]: 87.7% | viability, T/C [26]: 108% | viability, T/C [27]: 96.2% | viability, T/C [28]: 117% | viability, T/C [29]: 126% | viability, T/C [30]: 73.6% | viability, T/C [31]: 99.8% | viability, T/C [32]: 103% | viability, T/C [33]: 101% | viability, T/C [34]: 118% | viability, T/C [35]: 107% | viability, T/C [36]: 63.7%
